Experimental data reported in patent US8283352B2, “Solubilization preparation” (Dainippon Sumitomo Pharma Co., Ltd., priority 2005, dated 2012).
Counter-ions that a name gives are not always drawn. One block for each molecule: values may come before it.

Tests used:
Format in all cases: physicochemical
[1] = Solubility of lurasidone or a free form thereof in additives (Table 1), visual check; details: for solubility at 30 min: thermodynamic from solid
Method: Solid-type additives were studied in 10% aqueous solutions thereof and liquid-type ones were studied in 100% solutions thereof. Specifically, to 10% aqueous solution of solid-type additive or to 100% solution of liquid-type one was added lurasidone or a free form thereof so that a concentration thereof was 10 mg/mL, and the mixture was promoted to be dissolved by an operation such as stirring, heating or sonication. It was confirmed by visual check 30 minutes after the operation whether the mixture was perfectly dissolved. In case that the mixture was perfectly dissolved in a concentration of 10 mg/mL, another amount of lurasidone or a free form thereof was added to be evaluated.

[2] = Storage stability of 30 mg/mL solutions, residual ratio by reverse phase HPLC (Table 2); details: aqueous solutions using benzyl alcohol, propylene glycol, N,N-dimethylacetamide and lactic acid; one-month storage at 60° C. and 40° C.
Method: Solutions comprising lurasidone and a hydrochloride thereof in a concentration of 30 mg/mL were prepared in formulations in Table 2 to be stored under warming conditions (60° C. and 40° C.). After one-month storage, a residual ratio of principal agent was measured by using reverse phase HPLC. […] In other words, the present invention can provide a solution-type preparation with high stability wherein lurasidone and a free form thereof are solubilized at high concentrations.
Column: YMC-Pack AM-312 (5 μm, 6.0 mmφ×150 mm, manufactured by YMC Co., Ltd.)
Detector: ultraviolet absorptiometer (measured wavelength: 230 nm)
Column temperature: constant temperature around 25° C.
Solution A: 0.025% aqueous trifluoroacetic acid solution/acetonitrile mixture (4:1)
Solution B: 0.025% trifluoroacetic acid in acetonitrile solution

[3] = Solubility in water

- solubility at 30 min ([1]; aqueous buffer, additive No. 8: Sodium hydrogen carbonate): < 10000 µg/mL
- solubility at 30 min ([1]; aqueous with cosolvent or surfactant or cyclodextrin, additive No. 1: Citric acid): < 10000 µg/mL
- solubility at 30 min ([1]; aqueous with cosolvent or surfactant or cyclodextrin, additive No. 2: Sodium citrate): < 10000 µg/mL
- solubility at 30 min ([1]; aqueous with cosolvent or surfactant or cyclodextrin, additive No. 3: L-Aspartic acid): < 10000 µg/mL
- solubility at 30 min ([1]; aqueous with cosolvent or surfactant or cyclodextrin, additive No. 4: L-Arginine): < 10000 µg/mL
- solubility at 30 min ([1]; aqueous with cosolvent or surfactant or cyclodextrin, additive No. 5: Soy lecithin): < 10000 µg/mL
- solubility at 30 min ([1]; aqueous with cosolvent or surfactant or cyclodextrin, additive No. 6: Polysorbate 80): < 10000 µg/mL
- solubility at 30 min ([1]; aqueous with cosolvent or surfactant or cyclodextrin, additive No. 7: D-Mannitol): < 10000 µg/mL
- solubility at 30 min ([1]; aqueous with cosolvent or surfactant or cyclodextrin, additive No. 9: β-Cyclodextrin): < 10000 µg/mL
- solubility at 30 min ([1]; aqueous with cosolvent or surfactant or cyclodextrin, additive No. 10: Maleic acid): < 10000 µg/mL
- solubility at 30 min ([1]; aqueous with cosolvent or surfactant or cyclodextrin, additive No. 12: Calcium bromide): < 10000 µg/mL
- solubility at 30 min ([1]; aqueous with cosolvent or surfactant or cyclodextrin, additive No. 13: Ethylene diamine hydrochloride): < 10000 µg/mL
- solubility at 30 min ([1]; aqueous with cosolvent or surfactant or cyclodextrin, additive No. 14: Tris): < 10000 µg/mL
- solubility at 30 min ([1]; aqueous with cosolvent or surfactant or cyclodextrin, additive No. 16: Nicotinic amide): < 10000 µg/mL
- solubility at 30 min ([1]; aqueous with cosolvent or surfactant or cyclodextrin, additive No. 17: Capric acid): < 10000 µg/mL
- solubility at 30 min ([1]; oil or lipid, additive No. 11: Ethyl oleate): < 10000 µg/mL
- solubility at 30 min ([1]; oil or lipid, additive No. 21: Squalane): < 10000 µg/mL
- solubility at 30 min ([1]; oil or lipid, additive No. 22: Medium-chain triglyceride): < 10000 µg/mL
- solubility at 30 min ([1]; oil or lipid, additive No. 46: Sesame oil): 1000 to 10000 µg/mL
- solubility at 30 min ([1]; oil or lipid, additive No. 47: Castor oil): 1000 to 10000 µg/mL
- solubility at 30 min ([1]; oil or lipid, additive No. 49: Arachis oil): 1000 to 10000 µg/mL
- solubility at 30 min ([1]; oil or lipid, additive No. 50: Camellia oil): 1000 to 10000 µg/mL
- solubility at 30 min ([1]; oil or lipid, additive No. 51: Soybean oil): 1000 to 10000 µg/mL
- solubility at 30 min ([1]; oil or lipid, additive No. 52: Olive oil): < 1000 µg/mL
- solubility at 30 min ([1]; organic solvent or mixture, additive No. 15: Polyethylene glycol 400): < 10000 µg/mL
- solubility at 30 min ([1]; organic solvent or mixture, additive No. 18: Concentrated glycerin): < 10000 µg/mL
- solubility at 30 min ([1]; organic solvent or mixture, additive No. 19: Propylene glycol): 30000 to 100000 µg/mL
- solubility at 30 min ([1]; organic solvent or mixture, additive No. 20: Lactic acid): > 100000 µg/mL
- solubility at 30 min ([1]; organic solvent or mixture, additive No. 30: Benzyl alcohol): > 200000 µg/mL
- stability in aqueous solutions (in words) [2]: stable
- solubility in water [3]: less than several
SMILES: O=C1[C@@H]2[C@H]3CC[C@H](C3)[C@@H]2C(=O)N1C[C@@H]1CCCC[C@H]1CN1CCN(c2nsc3ccccc23)CC1 [Lurasidone, N-[4-[4-(1,2-benzisothiazol-3-yl)-1-piperazinyl]-(2R,3R)-2,3-tetramethylene-butyl]-(1′R,2′S,3′R,4′S)-2,3-bicyclo[2,2,1]heptanedicarboxyimide hydrochloride]

- Solubility ([1]; additive No. 21: Squalane): <10000 µg/mL
- Solubility ([1]; additive No. 22: Medium-chain triglyceride): <10000 µg/mL
- Solubility ([1]; additive No. 23: Benzyl benzoate): <10000 µg/mL
- Solubility ([1]; additive No. 24: Anhydrous ethanol): <10000 µg/mL
- Solubility ([1]; additive No. 25: Sorbitan sesquioleate): <10000 µg/mL
- Solubility ([1]; additive No. 26: 1,3-Butanediol): <10000 µg/mL
- Solubility ([1]; additive No. 27: Dipropylene glycol): <10000 µg/mL
- Solubility ([1]; additive No. 28: Triethyleneglycol): <10000 µg/mL
- Solubility ([1]; additive No. 29: Isopropyl alcohol): <10000 µg/mL
- Solubility ([1]; additive No. 32: Isopropyl myristate): <10000 µg/mL
- Solubility ([1]; additive No. 34: Monoethanolamine): <10000 µg/mL
- Solubility ([1]; additive No. 35: Diethanolamine): <10000 µg/mL
- Solubility ([1]; additive No. 36: Triethanolamine): <10000 µg/mL
- Solubility ([1]; additive No. 37: Liquid paraffin): <10000 µg/mL
- Solubility ([1]; additive No. 38: Toluene): >50000 µg/mL
- Solubility ([1]; additive No. 41: N-Methyl-2-pyrrolidone): >50000 µg/mL
- Solubility ([1]; additive No. 42: Glycol salicylate): <10000 µg/mL
- Solubility ([1]; additive No. 44: Triacetin): <10000 µg/mL
- Solubility ([1]; additive No. 46: Sesame oil): <10000 µg/mL
- Solubility ([1]; additive No. 47: Castor oil): <10000 µg/mL
- Solubility ([1]; additive No. 49: Arachis oil): <10000 µg/mL
- Solubility ([1]; additive No. 50: Camellia oil): <10000 µg/mL
- Solubility ([1]; additive No. 51: Soybean oil): <10000 µg/mL
- Solubility ([1]; additive No. 52: Olive oil): <10000 µg/mL
SMILES: O=C1[C@@H]2[C@H]3CC[C@H](C3)[C@@H]2C(=O)N1C[C@@H]1CCCC[C@H]1CN1CCN(c2nsc3ccccc23)CC1 [A free form of lurasidone, N-[4-[4-(1,2-benzisothiazol-3-yl)-1-piperazinyl]-(2R,3R)-2,3-tetramethylene-butyl]-(1′R,2′S,3′R,4′S)-2,3-bicyclo[2,2,1]heptane-dicarboxyimide]
